In brackets after ≈: the same amount, converted by molar mass. Like-named read-outs stand apart in the source and are kept apart here. Positions of bridges follow the written chain, without caps; N, C: chain ends. Non-standard residues stand in square brackets, D forms with d. Residues, ends and D or L forms follow the SMILES beside them. Lys(N3) = [N-]=[N+]=NCCCC[C@H](N)C(=O)O; R8 = C=CCCCCCC[C@@](C)(N)C(=O)O; Cba = N[C@@H](CC1CCC1)C(=O)O; S5 = C=CCCC[C@](C)(N)C(=O)O; Ahx = NCCCCCC(=O)O; βAla = NCCC(=O)O
Tests used:
[1] = Experimental LogD (partition coefficient); conditions: for logD: not stated, Partition Coeff LogD
[2] = Solubility assay (kinetic solubility, PBS pH 7); type: physicochemical; conditions: for solubility kinetic: pH 7, aqueous buffer, kinetic from dmso stock, read-out: Solubility
Procedure, shortened: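 Values derive from peak-area ratios of sample versus a 100 µM standard, scaled by that standard's concentration.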

HCT116 cells = assay: Lactate dehydrogenase (LDH) release assay; type: cell-based
Procedure, shortened: (§1)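 HCT116 cells stably carrying a p53-responsive β-lactamase reporter, seeded at 8000 cells/well, exposed to compound with 0.5% final DMSO. LDH release read with the CytoTox-ONE membrane integrity kit. Values are geometric means of at least three biological replicates.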

[3] = Lactate dehydrogenase (LDH) release assay; type: cell-based
Procedure, shortened: as §1

[4] = Nanoclick permeability assay
Procedure, shortened: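 Azido-peptide permeability was read as loss of NanoBRET signal (donor 450 nm, acceptor 610 nm) after adding NanoBret618-azide at 10 μM final.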

[5] = 0% FBS 4Hr, read-out: LDH: Cytotoxicity assay EC50

CC(=O)N[C@@H](CCCCN=[N+]=[N-])C(=O)NCCC(=O)N[C@@H](CC(C)C)C(=O)N[C@@H](C)C(=O)N[C@@H](Cc1ccccc1)C(=O)N[C@]1(C)CCCCCCC=CCCC[C@@](C)(C(=O)N[C@@H](CO)C(=O)N[C@@H](C)C(=O)N[C@@H](C)C(N)=O)NC(=O)[C@H](CC2CCC2)NC(=O)[C@H](CCC(N)=O)NC(=O)[C@H](C)NC(=O)[C@H](Cc2c[nH]c3ccccc23)NC(=O)[C@H](Cc2ccc(O)cc2)NC(=O)[C@H](C)NC1=O [MP-961, AZIDE-ATSP-7041 (T2A,E5A)] (Ac-[Lys(N3)][βAla]LAF[R8]AYWAQ[Cba][S5]SAA-NH2; staple 6-13)
Partition Coeff LogD [1]: Poorly Behaved | Partition Coeff LogD ([1]; experimental): P.B. | Solubility [2]: P.B. | Solubility ([2]; pH 7, PBS): Poorly Behaved | LDH: Cytotoxicity assay % Effect (HCT116 cells; 0% FBS 4Hr): 4.443% | EC50 [3, 5]: > 50 µM | EPSA (physchem): 206 A^2 | cell entry EC50 [4]: 272 nM

CC(=O)N[C@@H](CCCCN=[N+]=[N-])C(=O)NCCC(=O)N[C@@H](CC(C)C)C(=O)N[C@@H](CCCCN)C(=O)N[C@@H](Cc1ccccc1)C(=O)N[C@]1(C)CCCCCCC=CCCC[C@@](C)(C(=O)N[C@@H](CO)C(=O)N[C@@H](C)C(=O)N[C@@H](C)C(N)=O)NC(=O)[C@H](CC2CCC2)NC(=O)[C@H](CCC(N)=O)NC(=O)[C@H](C)NC(=O)[C@H](Cc2c[nH]c3ccccc23)NC(=O)[C@H](Cc2ccc(O)cc2)NC(=O)[C@H](CCC(=O)O)NC1=O [MP-547, AZIDE-ATSP-7041 (T2K)]
logD [1]: 3.02 | solubility kinetic ([2]; pH 7, PBS): 3 µM (≈ 5.99 µg/mL) | LDH: Cytotoxicity assay % Effect (HCT116 cells; 0% FBS 4Hr): 26.9% | LDH: Cytotoxicity assay % Effect (HCT116 cells; 0% FBS 16Hr): 15.73% | EC50 [3, 5]: > 50 µM | EPSA (physchem): 229 A^2 | cell entry EC50 [4]: 72.2 nM

CC(=O)N[C@@H](CCCCN=[N+]=[N-])C(=O)NCCC(=O)N[C@@H](CC(C)C)C(=O)N[C@@H](C)C(=O)N[C@@H](Cc1ccccc1)C(=O)N[C@]1(C)CCCCCCC=CCCC[C@@](C)(C(=O)N[C@@H](CO)C(=O)N[C@@H](C)C(=O)N[C@@H](C)C(N)=O)NC(=O)[C@H](CC2CCC2)NC(=O)[C@H](CCC(N)=O)NC(=O)[C@H](C)NC(=O)[C@H](Cc2c[nH]c3ccccc23)NC(=O)[C@H](Cc2ccc(O)cc2)NC(=O)[C@H](CCC(=O)O)NC1=O [MP-953, AZIDE-ATSP-7041 (T2A)] (Ac-[Lys(N3)][βAla]LAF[R8]EYWAQ[Cba][S5]SAA-NH2; staple 6-13)
logD [1]: 2.93 | solubility kinetic ([2]; pH 7, PBS): 186 µM (≈ 361 µg/mL) | LDH: Cytotoxicity assay % Effect (HCT116 cells; 0% FBS 4Hr): 11.05% | LDH: Cytotoxicity assay % Effect (HCT116 cells; 0% FBS 16Hr): -0.16% | EC50 [3, 5]: > 50 µM | EPSA (physchem): 221 A^2 | cell entry EC50 [4]: 494 nM

CC(=O)N[C@@H](CCCCN=[N+]=[N-])C(=O)NCCC(=O)N[C@@H](CC(C)C)C(=O)N[C@H](C(=O)N[C@@H](Cc1ccccc1)C(=O)N[C@]1(C)CCCCCCC=CCCC[C@@](C)(C(=O)N[C@@H](CO)C(=O)N[C@@H](C)C(=O)N[C@@H](C)C(N)=O)NC(=O)[C@H](CC2CCC2)NC(=O)[C@H](Cc2c[nH]cn2)NC(=O)[C@H](C)NC(=O)[C@H](Cc2c[nH]c3ccccc23)NC(=O)[C@H](Cc2ccc(O)cc2)NC(=O)[C@H](CCC(=O)O)NC1=O)[C@@H](C)O [MP-176, AZIDE-ATSP-7041 (Q9H)]
logD [1]: 2.88 | solubility kinetic ([2]; pH 7, PBS): 2 µM (≈ 3.96 µg/mL) | LDH: Cytotoxicity assay % Effect (HCT116 cells; 0% FBS 4Hr): 5.39% | LDH: Cytotoxicity assay % Effect (HCT116 cells; 0% FBS 16Hr): 4.02% | EC50 [3, 5]: > 50 µM | EPSA (physchem): 222 A^2 | cell entry EC50 [4]: 396 nM

CC(=O)N[C@@H](CCCCN=[N+]=[N-])C(=O)NCCC(=O)N[C@@H](CC(C)C)C(=O)N[C@H](C(=O)N[C@@H](Cc1ccccc1)C(=O)N[C@]1(C)CCCCCCC=CCCC[C@@](C)(C(=O)N[C@@H](CO)C(=O)N[C@@H](C)C(=O)N[C@@H](C)C(N)=O)NC(=O)[C@H](CC2CCC2)NC(=O)[C@H](CCC(N)=O)NC(=O)[C@H](CCCCN)NC(=O)[C@H](Cc2c[nH]c3ccccc23)NC(=O)[C@H](Cc2ccc(O)cc2)NC(=O)[C@H](CCC(=O)O)NC1=O)[C@@H](C)O [MP-549, AZIDE-ATSP-7041 (A8K)]
logD [1]: 2.75 | solubility kinetic ([2]; pH 7, PBS): 4.5 µM (≈ 9.12 µg/mL) | LDH: Cytotoxicity assay % Effect (HCT116 cells; 0% FBS 4Hr): 7.105% | LDH: Cytotoxicity assay % Effect (HCT116 cells; 0% FBS 16Hr): 45.26% | EC50 [3, 5]: > 50 µM | EPSA (physchem): 220 A^2 | cell entry EC50 [4]: 233 nM

CC(=O)N[C@@H](CCCCN=[N+]=[N-])C(=O)NCCC(=O)N[C@@H](C)C(=O)N[C@H](C(=O)N[C@@H](Cc1ccccc1)C(=O)N[C@]1(C)CCCCCCC=CCCC[C@@](C)(C(=O)N[C@@H](CO)C(=O)N[C@@H](C)C(=O)N[C@@H](C)C(N)=O)NC(=O)[C@H](CC2CCC2)NC(=O)[C@H](C)NC(=O)[C@H](C)NC(=O)[C@H](Cc2c[nH]c3ccccc23)NC(=O)[C@H](Cc2ccc(O)cc2)NC(=O)[C@H](CCC(=O)O)NC1=O)[C@@H](C)O [MP-959, AZIDE-ATSP-7041 (L1A,Q9A)] (Ac-[Lys(N3)][βAla]ATF[R8]EYWAA[Cba][S5]SAA-NH2; staple 6-13)
logD [1]: 2.79 | solubility kinetic ([2]; pH 7, PBS): 106 µM (≈ 197 µg/mL) | LDH: Cytotoxicity assay % Effect (HCT116 cells; 0% FBS 4Hr): 12.11% | LDH: Cytotoxicity assay % Effect (HCT116 cells; 0% FBS 16Hr): 5.8% | EC50 [3, 5]: 0.976 µM | EC50 ([3]; 4 hours, 0% serum, read-out: LDH Cytotoxicity assay EC50): 0.98 µM | EPSA (physchem): 218 A^2 | cell entry EC50 [4]: 126 nM

CC(=O)N[C@@H](CCCCN=[N+]=[N-])C(=O)N[C@@H](CCCCN)C(=O)NCCCCCC(=O)N[C@H](C(=O)N[C@@H](CO)C(=O)N[C@@H](Cc1ccccc1)C(=O)N[C@]1(C)CCCCCCC=CCCC[C@@](C)(C(=O)N[C@@H](CCC(=O)O)C(=O)N[C@@H](CC(N)=O)C(=O)N[C@@H](Cc2ccccc2)C(N)=O)NC(=O)[C@H](CC(C)C)NC(=O)[C@H](CC(C)C)NC(=O)[C@H](C)NC(=O)[C@H](Cc2c[nH]c3ccccc23)NC(=O)[C@H](Cc2ccc(O)cc2)NC(=O)[C@H](CCC(=O)O)NC1=O)[C@@H](C)O [MP-084] (Ac-[Lys(N3)]K[Ahx]TSF[R8]EYWALL[S5]ENF-NH2; staple 7-14)
logD [1]: 2.56 | solubility kinetic ([2]; pH 7, PBS): 2 µM (≈ 4.5 µg/mL) | LDH: Cytotoxicity assay % Effect (HCT116 cells): 0.08783% | EC50 ([3]; LDH: Cytotoxicity assay EC50): > 50.7 µM | EPSA (physchem): 187 A^2 | cell entry EC50 ([4]; Nanoclick permeability assay EC50): 74.5 nM

CC(=O)N[C@@H](CCCCN=[N+]=[N-])C(=O)NCCC(=O)N[C@@H](CC(C)C)C(=O)N[C@H](C(=O)N[C@@H](Cc1ccccc1)C(=O)N[C@]1(C)CCCCCCC=CCCC[C@@](C)(C(=O)N[C@@H](Cc2c[nH]cn2)C(=O)N[C@@H](C)C(=O)N[C@@H](C)C(N)=O)NC(=O)[C@H](CC2CCC2)NC(=O)[C@H](CCC(N)=O)NC(=O)[C@H](C)NC(=O)[C@H](Cc2c[nH]c3ccccc23)NC(=O)[C@H](Cc2ccc(O)cc2)NC(=O)[C@H](CCC(=O)O)NC1=O)[C@@H](C)O [MP-177, AZIDE-ATSP-7041 (S12H)] (Ac-[Lys(N3)][βAla]LTF[R8]EYWAQ[Cba][S5]HAA-NH2; staple 6-13)
logD [1]: 2.74 | solubility kinetic ([2]; pH 7, PBS): 6.5 µM (≈ 13.1 µg/mL) | LDH: Cytotoxicity assay % Effect (HCT116 cells; 0% FBS 4Hr): 4.985% | EC50 [3, 5]: > 50 µM | EPSA (physchem): 227 A^2 | cell entry EC50 [4]: 149 nM

CC(=O)N[C@@H](CCCCN=[N+]=[N-])C(=O)NCCC(=O)N[C@@H](CC(C)C)C(=O)N[C@H](C(=O)N[C@@H](Cc1ccccc1)C(=O)N[C@]1(C)CCCCCCC=CCCC[C@@](C)(C(=O)N[C@@H](CO)C(=O)N[C@@H](C)C(=O)N[C@@H](C)C(N)=O)NC(=O)[C@H](CC2CCC2)NC(=O)[C@H](CCC(N)=O)NC(=O)[C@H](C)NC(=O)[C@H](Cc2c[nH]c3ccccc23)NC(=O)[C@H](Cc2ccc(O)cc2)NC(=O)[C@H](C)NC1=O)[C@@H](C)O [MP-954, AZIDE-ATSP-7041 (E5A)] (Ac-[Lys(N3)][βAla]LTF[R8]AYWAQ[Cba][S5]SAA-NH2; staple 6-13)
Partition Coeff LogD [1]: Poorly Behaved | Partition Coeff LogD ([1]; experimental): P.B. | Solubility [2]: P.B. | Solubility ([2]; pH 7, PBS): Poorly Behaved | LDH: Cytotoxicity assay % Effect (HCT116 cells; 0% FBS 4Hr): 9.323% | LDH: Cytotoxicity assay % Effect (HCT116 cells; 0% FBS 16Hr): -0.76% | LDH: Cytotoxicity assay % Effect (HCT116 cells; 10% FBS 4Hr): 15.23% | EC50 [3, 5]: > 50 µM | EC50 ([3]; 10% FBS 4Hr, read-out: LDH: Cytotoxicity assay EC50): > 50 µM | EPSA (physchem): 205 A^2 | cell entry EC50 [4]: 217 nM

CC(=O)N[C@@H](CCCCN=[N+]=[N-])C(=O)NCCC(=O)N[C@@H](C)C(=O)N[C@H](C(=O)N[C@@H](Cc1ccccc1)C(=O)N[C@]1(C)CCCCCCC=CCCC[C@@](C)(C(=O)N[C@@H](CO)C(=O)N[C@@H](C)C(=O)N[C@@H](C)C(N)=O)NC(=O)[C@H](CC2CCC2)NC(=O)[C@H](CCC(N)=O)NC(=O)[C@H](C)NC(=O)[C@H](Cc2c[nH]c3ccccc23)NC(=O)[C@H](Cc2ccc(O)cc2)NC(=O)[C@H](C)NC1=O)[C@@H](C)O [MP-958, AZIDE-ATSP-7041 (L1A,E5A)] (Ac-[Lys(N3)][βAla]ATF[R8]AYWAQ[Cba][S5]SAA-NH2; staple 6-13)
logD [1]: 3.13 | solubility kinetic ([2]; pH 7, PBS): 5 µM (≈ 9.35 µg/mL) | LDH: Cytotoxicity assay % Effect (HCT116 cells; 0% FBS 4Hr): 13.33% | LDH: Cytotoxicity assay % Effect (HCT116 cells; 0% FBS 16Hr): 4.88% | EC50 [3, 5]: > 50 µM | EPSA (physchem): 207 A^2 | cell entry EC50 [4]: 333 nM

— paper PMC10786919, “Design-rules for stapled peptides with in vivo activity and their application to Mdm2/X antagonists” (Nature Communications, 2024)
